Reference: article doi:10.1101/2024.08.25.609621 (bioRxiv, 2024)
Where “and” joins values, the source holds several entries; their conditions need not be identical. Identical values can stand only once. Like-named read-outs stand apart in the source and are kept apart here.

Experiments:
[1] = target: SARS-CoV-2 NSP3 macrodomain (Mac1) (Severe acute respiratory syndrome coronavirus 2, UniProt P0DTD1); test: biochemical; format: binding; details: for SARS CoV-2 macrodomain HTRF assay: Hillslope: dose-response fit
[2] = target: SARS-CoV-2 NSP3 macrodomain (Mac1), P43 crystal form (Severe acute respiratory syndrome coronavirus 2, UniProt P0DTD1); format: binding; details: for 1-BDC: PanDDA background density correction; for Total number of conformations: ligand conformations modeled in Mac1 crystal structure; for X-ray crystallography: Binding site: site where the ligand is bound in the X-ray crystal structure
[3] = Dose-response, SARS CoV-2 macrodomain HTRF assay, read-out: IC50
[4] = Single dose, 200 μM, mean of three technical replicates, read-out: Average % competition
[5] = preliminary screen, compound at 200 μM, mean of 3-4 technical replicates, read-out: % competition in HTRF assay
[6] = TRUE = crystal structure with ligand determined
[7] = crystal soak concentration 20 mM
[8] = crystal soak concentration 20 mM, event 1
[9] = crystal soak concentration 20 mM, P43 crystals
[10] = crystal soak, soak concentration 10 mM
[11] = occupancy estimate from PanDDA BDC
[12] = site of Mac1 where ligand bound in crystal structure
[13] = crystal soak 10 mM, P43 crystals
[14] = crystal soak concentration 10 mM, event 1
[15] = crystal soak concentration 10 mM, P43 crystals
[16] = crystal soak concentration 10 mM
[17] = occupancy estimate from PanDDA 1-BDC
[18] = SARS CoV-2 macrodomain HTRF assay, dose-response
[19] = Single dose, concentration 200 μM, read-out: Average % competition
[20] = X-ray crystal structure determined (TRUE)
[21] = site of ligand in X-ray crystal structure

SMILES | inhibition at 200 µM [1, 5] [%] | Occupancy difference (refined_occupancy - 2*(1-BDC)) [2] | Refined ligand occupancy (%) [2] [%] | 1-BDC [2] | Total number of conformations [2] | 2*(1-BDC) (%) [2, 11] [%] | Hill slope ([1]; HTRF dose-response fit, Mac1) | SARS CoV-2 macrodomain HTRF assay: Hillslope [1] | X-ray crystallography: Binding site [2] | PanDDA run, DMSO background map: 1-BDC ([2]; event 1) | PanDDA run, DMSO background map: 1-BDC [2, 14] | Pandda run, overall: Hit [2, 15] | PanDDA run, DMSO background map: Hit [2, 16] | 2*(1-BDC) (%) [2, 17] [%] | further results
O=C(O)C(c1ccccc1)n1sc2ccccc2c1=O (stereo not drawn) [AVI-288] | 21 | 0 | 74 | 0.37 | 1 | 74 | – | – | – | – | – | – | – | – | IC50 [1, 3]: > 1 mM; inhibition at 200 µM [1, 4]: 21%; X-ray crystal structure [2, 6]: TRUE; PanDDA run, DMSO background map: Hit [2, 7]: TRUE; PanDDA run, DMSO background map: Modeled [2, 7]: TRUE; PanDDA run, DMSO background map: 1-BDC [2, 8]: 0.37; Pandda run, overall: Hit [2, 9]: TRUE; Pandda run, overall: Modeled [2, 9]: TRUE; Pandda run, overall: Modeling comment [2, 10]: Duplicate, not modeled; Pandda run, overall: Hit ([2]; crystal soak, soak concentration 10 mM, P43 crystals, TRUE = ligand-binding event identified): TRUE; PanDDA run, DMSO background map: Hit [2, 10]: TRUE; PanDDA run, DMSO background map: 1-BDC ([2]; crystal soak, soak concentration 10 mM, event 1): 0.26; Binding site [2, 12]: Adenosine
CC(O)C1CCCN1c1ncnc2[nH]ccc12 (stereo not drawn) [AVI-4062] | – | 18 | 70 | 0.26 | 1 | 52 | 1.1 | 1.1 | Adenosine | – | – | – | – | – | Hit (PanDDA run, overall) [2, 13]: TRUE; Hit (PanDDA run, DMSO background map) ([2]; crystal soak 10 mM): TRUE; 1-BDC (PanDDA run, DMSO background map) ([2]; crystal soak 10 mM, event 1): 0.26 and 0.29
Cc1sc2ncnc(Sc3ccccc3C(=O)O)c2c1C [AVI-317] | 24 | – | – | 0.15 | 2 | – | – | – | – | 0.18 | 0.17 and 0.15 | TRUE | TRUE | 30 | inhibition at 200 µM [1, 4]: 24%; X-ray crystal structure [2, 6]: TRUE; Pandda run, overall: Modeled [2, 15]: TRUE; Pandda run, overall: Modeling comment [2, 15]: Duplicate, not modeled; PanDDA run, DMSO background map: Modeled [2, 16]: TRUE; Binding site [2, 12]: Adenosine
CC(C)(O)C1C2CCCCC2CN1c1ncnc2[nH]ccc12 (stereo not drawn) [AVI-4127] | – | 10 | 60 | 0.25 | 2 | 50 | 1.3 | 1.3 | Adenosine | – | 0.23 and 0.25 | TRUE | TRUE | – | Phe132 loop open state [2]: TRUE; Pandda run, overall: Modeled [2, 15]: TRUE; Pandda run, overall: Modeling comment [2, 15]: Duplicate, not modeled; PanDDA run, DMSO background map: Modeled [2, 16]: TRUE
OC1CCC(O)(CNc2ncnc3[nH]ccc23)CC1 (stereo not drawn) [AVI-6220] | – | 0 | 14 | 0.07 | 2 | 14 | 1.3 | 1.3 | Adenosine | 0.07 | – | – | – | – | –
O=C(Nc1ccsc1C(=O)O)c1ccc2c(c1)OCO2 [AVI-316] | 29 | – | – | 0.07 | 1 | – | – | – | – | – | 0.07 | TRUE | TRUE | 14 | IC50 [1, 3]: > 1 mM; inhibition at 200 µM [1, 4]: 29%; X-ray crystal structure [2, 6]: TRUE; Pandda run, overall: Modeled [2, 15]: TRUE; PanDDA run, DMSO background map: Modeled [2, 16]: TRUE; PanDDA run, DMSO background map: Hit [2, 7]: TRUE; PanDDA run, DMSO background map: 1-BDC [2, 8]: 0.12; Pandda run, overall: Hit [2, 9]: TRUE; Pandda run, overall: Modeling comment [2, 9]: Duplicate, not modeled; Binding site [2, 12]: Adenosine
CC1CC(C(=O)O)CN(C(=O)CSc2ccc(O)cc2)C1 (stereo not drawn) [AVI-334] | – | – | – | – | – | – | – | – | – | 0.12 | 0.07 | TRUE | TRUE | – | Average % competition ([1]; Single dose, 200 μM, mean of three technical replicates): 25%; Pandda run, overall: Modeling comment [2, 15]: Weak density, not modeled
O=C(O)C(F)(F)F.OCC1(Nc2ncnc3[nH]ccc23)CCCC1 [AVI-3692] | 85 | – | – | 0.22 | 1 | – | 1.3 | – | – | – | – | – | – | 44 | Hill slope [1, 18]: 1.3; inhibition at 200 µM [1, 19]: 85%; X-ray crystal structure [2, 20]: TRUE; Pandda run, overall: Hit [2, 13]: TRUE; Pandda run, overall: Modeled [2, 13]: TRUE; PanDDA run, DMSO background map: 1-BDC ([2]; crystal soak 10 mM): 0.22; PanDDA run, DMSO background map: Hit ([2]; crystal soak 10 mM): TRUE; Binding site [2, 21]: Adenosine
OC1(CNc2ncnc3[nH]ccc23)CCCOC1 (stereo not drawn) [AVI-4311] | – | 0 | 50 | 0.25 | 1 | 50 | 1.4 | 1.4 | Adenosine | 0.3 | – | – | – | – | Hit (PanDDA run, overall) [2, 13]: TRUE; Hit (PanDDA run, DMSO background map) ([2]; crystal soak 10 mM): TRUE; 1-BDC (PanDDA run, DMSO background map) ([2]; crystal soak 10 mM, event 1): 0.25
CC1CCCC(O)(CNc2ncnc3[nH]ccc23)C1 (stereo not drawn) [AVI-4307] | – | 0 | 34 | 0.17 | 1 | 34 | 1.0 | 1.0 | Adenosine | 0.26 | – | – | – | – | Hit (PanDDA run, overall) [2, 13]: TRUE; Hit (PanDDA run, DMSO background map) ([2]; crystal soak 10 mM): TRUE; 1-BDC (PanDDA run, DMSO background map) ([2]; crystal soak 10 mM, event 1): 0.17
OCC1CC2(CCCC2)CN1c1ncnc2[nH]ccc12 (stereo not drawn) [AVI-3708] | 90 | – | – | 0.32 | 1 | – | 1.1 | 1.1 | Adenosine | – | – | – | – | 64 | inhibition at 200 µM ([1]; Single dose, concentration 200 μM, read-out: SARS CoV-2 macrodomain HTRF assay: Average % competition): 90%; Pandda run, overall: Modeled [2, 10]: TRUE; Pandda run, overall: Hit ([2]; crystal soak, soak concentration 10 mM, TRUE = ligand hit): TRUE; PanDDA run, DMSO background map: 1-BDC ([2]; soak concentration 10 mM): 0.32; PanDDA run, DMSO background map: Hit ([2]; soak concentration 10 mM): TRUE
OC1(CNc2ncnc3[nH]ccc23)CCCSC1 (stereo not drawn) [AVI-4322] | – | 0 | 42 | 0.21 | 1 | 42 | 1.3 | 1.3 | Adenosine | 0.21 | – | – | – | – | –
O=C(O)C(F)(F)F.OCC1(Nc2ncnc3[nH]ccc23)CCC1 [AVI-3670] | 87 | – | – | 0.18 | 2 | – | 1.2 | – | – | – | – | – | – | 36 | Hill slope [1, 18]: 1.2; inhibition at 200 µM [1, 19]: 87%; X-ray crystal structure [2, 20]: TRUE; Pandda run, overall: Hit [2, 13]: TRUE; Pandda run, overall: Modeled [2, 13]: TRUE; PanDDA run, DMSO background map: 1-BDC ([2]; crystal soak 10 mM): 0.18; PanDDA run, DMSO background map: Hit ([2]; crystal soak 10 mM): TRUE; Binding site [2, 21]: Adenosine
Cc1c[nH]c2ncnc(NCC3(O)CCC(C)CC3)c12 (stereo not drawn) [AVI-4331] | – | 0 | 54 | 0.27 | 1 | 54 | 1.2 | 1.2 | Adenosine | – | 0.23 | TRUE | TRUE | – | Pandda run, overall: Hit ([2]; crystal soak 10 mM, P43 crystals, TRUE = ligand identified by PanDDA): TRUE; PanDDA run, DMSO background map: Hit ([2]; crystal soak 10 mM): TRUE; PanDDA run, DMSO background map: 1-BDC ([2]; crystal soak 10 mM, event 1): 0.27; Pandda run, overall: Modeling comment [2, 15]: Duplicate, not modeled
CN(C)CC(CO)Nc1ncnc2[nH]ccc12 (stereo not drawn) [AVI-3671] | – | – | – | 0.17 | 1 | – | – | – | – | – | – | – | – | 34 | % competition in HTRF assay ([1]; preliminary screen, compound at 200 μM, mean of 3-4 technical replicates): neither had detectable binding; X-ray crystal structure [2, 20]: TRUE; Pandda run, overall: Hit [2, 13]: TRUE; Pandda run, overall: Modeled [2, 13]: TRUE; PanDDA run, DMSO background map: 1-BDC ([2]; crystal soak 10 mM): 0.17; PanDDA run, DMSO background map: Hit ([2]; crystal soak 10 mM): TRUE; Binding site [2, 21]: Adenosine
CC(C)(C)C1CCCN1c1ncnc2[nH]ccc12 (stereo not drawn) [AVI-6000] | – | 0 | 14 | 0.07 | 1 | 14 | – | – | Adenosine | 0.07 | – | – | – | – | IC50 ([1]; dose-response, read-out: SARS CoV-2 macrodomain HTRF assay: IC50): > 1 mM
